According to patent US9290476B2, “Methylene linked quinolinyl modulators of RORγt” (Janssen Pharmaceutica NV, priority 2012, dated 2016):
Where a name gives a salt, the structure may show the parent alone.

Key:
[1] = molecular target: human RORγt ligand binding domain (RORγt LBD) (Homo sapiens (Human), UniProt P51449); assay: RORγt ThermoFluor assay (thermal shift binding affinity); details: estimated from thermal shift
Description: This approach is applicable to a wide variety of systems, and rigorous in theoretical interpretation through quantitation of equilibrium binding constants (KD).
The shift in the melting point described as a ΔTm is proportional to the concentration and affinity of the ligand.
RORγt ThermoFluor® Assay Construct
Protein and compound solutions are dispensed into black 384-well polypropylene PCR microplates (Abgene) and overlayed with silicone oil (1 μL, Fluka, type DC 200) to prevent evaporation.
Bar-coded assay plates are robotically loaded onto a thermostatically controlled PCR-type thermal block and then heated at a typical ramp-rate of 1° C./min for all experiments. Fluorescence was measured by continuous illumination with UV light (Hamamatsu LC6) supplied via fiber optic and filtered through a band-pass filter (380-400 nm; >6 OD cutoff). Fluorescence emission of the entire 384-well plate was detected by measuring light intensity using a CCD camera (Sensys, Roper Scientific) filtered to detect 500±25 nm, resulting in simultaneous and independent readings of all 384 wells. Images were collected at each temperature, and the sum of the pixel intensity in a given area of the assay plate was recorded versus temperature. Reference wells contained RORγt without compounds, and the assay conditions were as follows: • 0.065 mg/mL RORγt • 60 μM 1,8-ANS • 100 mM Hepes, pH 7.0 • 10 mM NaCl • 2.5 mM GSH • 0.002% Tween-20
Project compounds were arranged in a pre-dosed mother plate (Greiner Bio-one) wherein compounds are serially diluted in 100% DMSO by 1:2 from a high concentration of 10 mM over 12 columns within a series (column 12 is a reference well containing DMSO, no compound). The compounds were robotically dispensed directly into assay plates (1×=46 nL) using a Hummingbird capillary liquid handling instrument (Digilab). Following compound dispense, protein and dye in buffer was added to achieve the final assay volume of 3 μL, followed by 1 μL of silicone oil.

human RORγt LBD = human RORγt LBD (Homo sapiens (Human), UniProt P51449); assay: RORγt reporter assay (GAL4-RORγt LBD luciferase in HEK293T cells); type: cell-based; details: for IC50 / RORγt reporter Assay, % inhibition @ 6 μM: HEK293T cells; for IC50: 24 hours compound treatment; for inhibition at 6 µM: HEK-293T, read-out: RORγt reporter Assay, % inhibition @ 6 μM, HEK293T cells, 6 μM
From the text: A reporter assay was used to test functional activity of RORγt modulatory compounds on transcriptional activation driven by the RORγt LBD. Cells used in the assay were co-transfected with two constructs. The first construct, pBIND-RORγt LBD, contained the wild type human RORγt LBD fused to the DNA binding domain of the GAL4 protein. The second construct, pGL4.31 (Promega Cat no. C935A), contained multiple GAL4 responsive DNA elements upstream of firefly luciferase. […] The mutant construct was called pBIND-RORγt-AF2.
The pBIND vector contains the GAL4 DNA Binding Domain (GAL4 DBD) and the renilla luciferase gene under control of the SV40 promoter. Renilla luciferase expression serves as a control for transfection efficiency and cell viability.
The reporter assay was performed by transiently transfecting HEK293T cells with 5 ng of pBIND-RORγt LBD or pBIND-RORγt LBD-AF2 and 5 μg pGL4.31 (Promega Cat no. C935A) using Fugene 6 ([…] Cat no. E2691) at a 1:6 ratio of DNA: Fugene 6 in a T-75 flask in which cells were at least 80% confluent. Twenty four hours after bulk transfection, cells were plated into 96-well plates at 50,000 cells/well in phenol-red free DMEM containing 5% Lipid Reduced FCS and Pen/Strep. Six hours after plating, cells were treated with compounds for 24 hours. Media was removed and cells were lysed with 50 μL 1× Glo Lysis Buffer (Promega). Dual Glo Luciferase Reagent (50 μL/well) was then added and firefly luciferase luminescence was read on an Envision after a ten minute incubation. Finally, Stop and Glo reagent (50 μL/well) was added and renilla luciferase luminescence was read on an Envision after a ten minute incubation. To calculate the effect of compounds on RORγt activity, the ratio of firefly to renilla luciferase was determined and plotted against compound concentration. Agonist compounds increase RORγt-driven luciferase expression, and antagonist or inverse agonist compounds decrease luciferase expression.

Sequence of human RORγt ligand binding domain (RORγt LBD) (P51449 other isoform, or with tags, fused parts or gaps): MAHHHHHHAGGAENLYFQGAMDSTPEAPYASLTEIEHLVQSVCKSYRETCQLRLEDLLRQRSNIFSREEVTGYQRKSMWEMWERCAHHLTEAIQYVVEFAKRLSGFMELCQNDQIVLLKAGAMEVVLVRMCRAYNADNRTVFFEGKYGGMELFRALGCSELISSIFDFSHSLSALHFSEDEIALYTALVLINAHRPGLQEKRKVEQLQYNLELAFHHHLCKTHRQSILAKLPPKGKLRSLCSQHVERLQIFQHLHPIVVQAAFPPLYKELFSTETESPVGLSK
Sequence of human RORγt LBD (P51449 258-518): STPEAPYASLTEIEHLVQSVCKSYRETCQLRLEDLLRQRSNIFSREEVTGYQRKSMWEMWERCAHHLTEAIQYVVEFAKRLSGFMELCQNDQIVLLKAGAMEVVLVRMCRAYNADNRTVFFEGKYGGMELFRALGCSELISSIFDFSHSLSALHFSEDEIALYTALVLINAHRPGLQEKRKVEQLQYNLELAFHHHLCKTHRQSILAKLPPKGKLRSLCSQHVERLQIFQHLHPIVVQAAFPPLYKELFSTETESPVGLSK

SMILES	Kd [1] [µM]	IC50 (human RORγt LBD) [µM]	inhibition at 6 µM (human RORγt LBD) [%]	RORγt reporter Assay, % inhibition @ 6 μM (human RORγt LBD) [%]
COc1nc2ccc(C(O)(c3ccccc3)C3CCN(C(C)=O)CC3)cc2c(Cl)c1Cc1ccc(-n2cccn2)cc1 (racemic) [Example 83A, 1-(4-((3-(4-(1H-Pyrazol-1-yl)benzyl)-4-chloro-2-methoxyquinolin-6-yl)(hydroxy)(phenyl)methyl)piperidin-1-yl)ethanone]	0.012	0.039	104	
CON(C)c1nc2ccc(C(O)(c3ccc(C(F)(F)F)nc3)c3cncn3C)cc2c(Cl)c1Cc1ccc(-n2cccn2)cc1 (stereo not drawn) [Example 67A, (3-(4-(1H-Pyrazol-1-yl)benzyl)-4-chloro-2-(methoxy(methyl)amino)quinolin-6-yl)(1-methyl-1H-imidazol-5-yl)(6-(trifluoromethyl)pyridin-3-yl)methanol TFA?]	0.018	0.044	115	
Cn1cncc1C(O)(c1ccc(Cl)cc1)c1ccc2nc(O)c(Cc3ccc(-n4cccn4)cc3)c(Cl)c2c1 (stereo not drawn) [Example 55A, 3-(4-(1H-Pyrazol-1-yl)benzyl)-4-chloro-6-((4-chlorophenyl)(hydroxy)(1-methyl-1H-imidazol-5-yl)methyl)quinolin-2-ol]	7.6	1.7	94	
Cc1ccc(C(O)(c2ccc3nc(C#N)c(Cc4ccc(C(F)(F)F)cc4)c(C#N)c3c2)c2cnnn2C)c(C)n1 (single isomer, unassigned) [Example 88B, 6-((2,6-Dimethylpyridin-3-yl)(hydroxy)(1-methyl-1H-1,2,3-triazol-5-yl)methyl)-3-(4-(trifluoromethyl)benzyl)quinoline-2,4-dicarbonitrile]	0.029	0.14	96	
COc1nc2c(C)cc(C(O)(c3cncn3C)c3cncn3C)cc2c(Cl)c1Cc1ccc(-n2cccn2)cc1 [Example 56, (3-(4-(1H-Pyrazol-1-yl)benzyl)-4-chloro-2-methoxy-8-methylquinolin-6-yl)bis(1-methyl-1H-imidazol-5-yl)methanol]	0.00029	0.012	102	
COc1nc2ccc(C(N)(c3ccc(C)nc3C)c3cnnn3C)cc2c(Cl)c1Cc1ccc(C(F)(F)F)cc1 (single isomer, unassigned) [Example 87B, (4-Chloro-2-methoxy-3-(4-(trifluoromethyl)benzyl)quinolin-6-yl)(2,6-dimethylpyridin-3-yl)(1-methyl-1H-1,2,3-triazol-5-yl)methanamine]	2.3	0.85	95	
Cc1nc2ccc(C(O)(c3ccc(Cl)cc3)c3cncn3C)cc2c(C)c1Cc1ccccc1 (stereo not drawn) [Example 50, (3-Benzyl-2,4-dimethylquinolin-6-yl)(4-chlorophenyl)(1-methyl-1H-imidazol-5-yl)methanol.TFA]	0.32	> 6	71	
CCc1nc2ccc(C(O)(c3cnnn3C)C3CN(C(=O)OC(C)(C)C)C3)cc2c(Cl)c1Cc1ccc(C(F)(F)F)cc1 (stereo not drawn) [Example 89, tert-Butyl 3-((4-chloro-2-ethyl-3-(4-(trifluoromethyl)benzyl)quinolin-6-yl)(hydroxy)(1-methyl-1H-1,2,3-triazol-5-yl)methyl)azetidine-1-carboxylate]	0.00077	0.021	102	
OC(c1cccnc1)(c1cccc(Cl)c1)c1ccc2nc(Cl)c(Cc3cccc(Cl)c3)c(Cl)c2c1 (stereo not drawn) [Example 4, (3-Chlorophenyl)-(2,4-dichloro-3-(3-chlorobenzyl)quinolin-6-yl)-(pyridin-3-yl)methanol.TFA]	0.0077	~6	46	
CCN(CC)c1nc2ccc(C(O)(c3ccc(Cl)cc3)c3cncn3C)cc2c(Cl)c1Cc1ccc(-n2cccn2)cc1 (single isomer, unassigned) [Example 75B, (3-(4-(1H-Pyrazol-1-yl)benzyl)-4-chloro-2-(diethylamino)quinolin-6-yl)(4-chlorophenyl)(1-methyl-1H-imidazol-5-yl)methanol]	8.6	> 6		39
COc1nc2ccc(C(O)(c3ccc(C(F)(F)F)nc3)c3cncn3C)cc2c(Cl)c1Cc1ccc(C(F)(F)F)nc1 (stereo not drawn) [Example 94A, (4-Chloro-2-methoxy-3-((6-(trifluoromethyl)pyridin-3-yl)methyl)quinolin-6-yl)(1-methyl-1H-imidazol-5-yl)(6-(trifluoromethyl)pyridin-3-yl)methanol]	0.012	0.069	98	
OC(c1ccc(F)cc1)(c1cccnc1)c1ccc2nc(Cl)c(Cc3ccc(-n4cccn4)cc3)c(Cl)c2c1 (stereo not drawn) [Example 46, (3-(4-(1H-Pyrazol-1-yl)benzyl)-2,4-dichloroquinolin-6-yl)(4-fluorophenyl)(pyridin-3-yl)methanol]	0.022	0.052	89	
COc1nc2ccc(C(O)(c3ccc(N(C)C)cc3)c3cccnc3)cc2c(Cl)c1Cc1ccc(-n2cccn2)cc1 (stereo not drawn) [Example 42, (3-(4-(1H-Pyrazol-1-yl)benzyl)-4-chloro-2-methoxyquinolin-6-yl)(4-(dimethylamino)phenyl)(pyridin-3-yl)methanol]	0.36	0.18	96	
COc1nc2ccc(C(O)(c3ccc(Cl)cc3)c3cncn3C)cc2c(C#N)c1Cc1ccc(-n2cccn2)cc1 (stereo not drawn) [Example 69, 3-(4-(1H-Pyrazol-1-yl)benzyl)-6-((4-chlorophenyl)(hydroxy)(1-methyl-1H-imidazol-5-yl)methyl)-2-methoxyquinoline-4-carbonitrile]	0.05	0.17	103	
COc1nc2c(OC)cc(C(O)(c3ccc(C(F)(F)F)nc3)c3cncn3C)cc2c(Cl)c1Cc1ccc(-n2cccn2)cc1 (single isomer, unassigned) [Example 59C, (3-(4-(1H-pyrazol-1-yl)benzyl)-4-chloro-2,8-dimethoxyquinolin-6-yl)(1-methyl-1H-imidazol-5-yl)(6-(trifluoromethyl)pyridin-3-yl)methanol]	0.22	0.57		108
Cn1cncc1C(O)(c1ccc(C(F)(F)F)nc1)c1ccc2nc(C#N)c(Cc3ccc(-n4cccn4)cc3)cc2c1 (single isomer, unassigned) [Example 70B, 3-(4-(1H-Pyrazol-1-yl)benzyl)-6-(hydroxy(1-methyl-1H-imidazol-5-yl)(6-(trifluoromethyl)pyridin-3-yl)methyl)quinoline-2-carbonitrile]	1.1	1	101	
COc1nc2ccc(C(O)(c3ccc(N(C)C)cc3)c3cncn3C)cc2c(Cl)c1Cc1ccc(-n2cccn2)cc1 (stereo not drawn) [Example 26, (3-(4-(1H-Pyrazol-1-yl)benzyl)-4-chloro-2-methoxyquinolin-6-yl)(4-(dimethylamino)phenyl)(1-methyl-1H-imidazol-5-yl)methanol.TFA]	0.22	0.48	85	
Cn1cc(C(O)(c2ccc(Cl)cc2)c2ccc3nc(Cl)c(Cc4ccccc4)c(Cl)c3c2)cn1 (stereo not drawn) [Example 49, (3-Benzyl-2,4-dichloroquinolin-6-yl)(4-chlorophenyl)(1-methyl-1H-pyrazol-4-yl)methanol.TFA]	0.33	1.8	77	
